Assay results from patent publication US12371454B2, “Cyclic peptide compound having Kras inhibitory action” (priority 2019, dated 2025).
pIC50: −log10 of the molar value. Starred links: 1 amine or outer side, 2 acyl side, 3 side chain; linkers in the order of their positions; H or OH if unused. Positions of bridges follow the written chain, without caps; N, C: chain ends. Non-standard residues stand in square brackets, D forms with d. Residues, ends and D or L forms follow the SMILES beside them. *: point of attachment. hPhe(3-Cl-4-CF3) = N[C@@H](CCc1ccc(C(F)(F)F)c(Cl)c1)C(=O)O; NMePhe(4-CF3) = CN[C@@H](Cc1ccc(C(F)(F)F)cc1)C(=O)O; NPrAsp = CCCN([C@@H](CC(=O)[*:3])C(=O)[*:2])[*:1]; hPhe(4-CF3) = N[C@@H](CCc1ccc(C(F)(F)F)cc1)C(=O)O; NMedβ3hAla = C[C@H](CC(=O)[*:2])N(C)[*:1]; NMeAla(cPent) = CN[C@@H](CC1CCCC1)C(=O)O; NMeGly(cPent) = CN[C@H](C(=O)O)C1CCCC1; NMeAla(cPr) = CN[C@@H](CC1CC1)C(=O)O; NMeGly(cBu) = CN[C@H](C(=O)O)C1CCC1; NMeCha = CN[C@@H](CC1CCCCC1)C(=O)O; NMeChg = CN[C@H](C(=O)O)C1CCCCC1; NMeD = CN[C@@H](CC(=O)O)C(=O)O; NMeL = CN[C@@H](CC(C)C)C(=O)O; NMeV = CN[C@H](C(=O)O)C(C)C; NMeS = CN[C@@H](CO)C(=O)O; Ac6c = NC1(C(=O)O)CCCCC1; NMeA = CN[C@@H](C)C(=O)O; Piperidide = C1CCN(*)CC1; Pyrrolidide = C1CCN(*)C1; Ac5c = NC1(C(=O)O)CCCC1; Aze = O=C(O)[C@@H]1CCN1; CH2CMe2OH = CC(C)(O)C*; Sar = CNCC(=O)O

Legend:
[1] = target: T1, Kras and SOS1 (biotin-tagged human Kras loaded with GDP, His-tagged human SOS1) (Homo sapiens, UniProt P01116, G12D); test: Protein-protein interaction inhibition between Kras and SOS1 (KrasGl2D-SOS PPI) using AlphaScreen; format: binding; conditions: AlphaScreen; biotin-tagged human Kras loaded with GDP, His-tagged human SOS1; read-out: KRAS G12D-SOS PPI IC50
T1 construct: made in house; host or cells: E. coli (stated for Kras only)
Procedure, shortened: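 Kras was produced in E. coli, purified, then loaded with GDP. It was paired via streptavidin acceptor beads with His-SOS1 held on nickel donor beads, and proximity signal at 520-620 nm was read after 680 nm illumination.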

[2] = test system: Human pancreatic cancer cell line AsPC-1; test: Measurement of AsPC-1 cell growth inhibition (AsPC-1 CGI); format: cell-based; conditions: 96 h
Procedure, shortened: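 AsPC-1 cells in 15% FBS RPMI-1640 were exposed to test compound for 96 hours at 37° C, with CellTiter-Glo as endpoint.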

T1 sequence (P01116 1-188 isoform P01116-2 G12D): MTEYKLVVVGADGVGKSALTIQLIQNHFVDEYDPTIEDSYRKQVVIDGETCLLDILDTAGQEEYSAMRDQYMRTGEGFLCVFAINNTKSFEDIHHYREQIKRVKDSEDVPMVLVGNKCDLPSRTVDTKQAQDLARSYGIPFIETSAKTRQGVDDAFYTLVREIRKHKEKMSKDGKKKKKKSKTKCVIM

Compound	pIC50 [1]	pIC50 [2]
CCCN1C(=O)[C@H](C2CCCC2)N(C)C(=O)C2(CCCC2)NC(=O)[C@@H]2CCCN2C(=O)[C@H](CCc2ccc(C(F)(F)F)c(Cl)c2)NC(=O)CN(C)C(=O)[C@H](CC2CCCCC2)N(C)C(=O)CN(C)C(=O)CN(C)C(=O)[C@H]([C@@H](C)CC)NC(=O)[C@H](C)N(C)C(=O)C[C@H]1C(=O)N1CCCCC1 [Compound 56] ([NMeA]I[Sar][Sar][NMeCha][Sar][hPhe(3-Cl-4-CF3)]P[Ac5c][NMeGly(cPent)][NPrAsp]-Piperidide; lactam N-11)	8.64	7.30 to 7.70
CC[C@H](C)[C@@H]1NC(=O)[C@H](CC2CCCC2)N(C)C(=O)C[C@@H](C(=O)N2CCCCC2)N(C)C(=O)[C@H](C(C)C)N(C)C(=O)C2(CCCC2)NC(=O)[C@@H]2CCCN2C(=O)[C@H](CCc2ccc(C(F)(F)F)c(Cl)c2)NC(=O)CN(C)C(=O)[C@H](CC2CCCCC2)N(C)C(=O)CN(C)C(=O)CN(C)C1=O [Compound 60] ([NMeAla(cPent)]I[Sar][Sar][NMeCha][Sar][hPhe(3-Cl-4-CF3)]P[Ac5c][NMeV][NMeD]-Piperidide; lactam N-11)	8.10	6.30 to 7.00
CC[C@H](C)[C@@H]1NC(=O)[C@H](CC2CC2)N(C)C(=O)C[C@@H](C(=O)N2CCCCC2)N(C)C(=O)[C@H](C2CCCCC2)N(C)C(=O)C2(CCCC2)NC(=O)[C@@H]2CCCN2C(=O)[C@H](CCc2ccc(C(F)(F)F)c(Cl)c2)NC(=O)CN(C)C(=O)[C@H](CC2CCCCC2)N(C)C(=O)CN(C)C(=O)CN(C)C1=O [Compound 68] ([NMeAla(cPr)]I[Sar][Sar][NMeCha][Sar][hPhe(3-Cl-4-CF3)]P[Ac5c][NMeChg][NMeD]-Piperidide; lactam N-11)	9.24	7.00 to 7.30
CC[C@H](C)[C@@H]1NC(=O)[C@H](C)N(C)C(=O)C[C@@H](C(=O)N2CCCCC2)N(C)C(=O)[C@H](C2CCCCC2)N(C)C(=O)C2(CCCC2)NC(=O)[C@@H]2CCCN2C(=O)[C@H](CCc2ccc(C(F)(F)F)cc2)NC(=O)CN(C)C(=O)[C@H](CC2CCCCC2)N(C)C(=O)CN(C)C(=O)CN(C)C1=O [Compound 72] ([NMeA]I[Sar][Sar][NMeCha][Sar][hPhe(4-CF3)]P[Ac5c][NMeChg][NMeD]-Piperidide; lactam N-11)	9.33	6.30 to 7.00
CC[C@H](C)[C@@H]1NC(=O)[C@H](C2CCC2)N(C)C(=O)C[C@@H](C(=O)N2CCCC2)N(C)C(=O)[C@H](C2CCCCC2)N(C)C(=O)C2(CCCC2)NC(=O)[C@@H]2CCCN2C(=O)[C@H](CCc2ccc(C(F)(F)F)c(Cl)c2)NC(=O)CN(C)C(=O)[C@H](Cc2ccc(C(F)(F)F)cc2)N(C)C(=O)CN(C)C(=O)CN(C)C1=O [Compound 73] ([NMeGly(cBu)]I[Sar][Sar][NMePhe(4-CF3)][Sar][hPhe(3-Cl-4-CF3)]P[Ac5c][NMeChg][NMeD]-Pyrrolidide; lactam N-11)	9.48	7.30 to 7.70
CC[C@H](C)[C@@H]1NC(=O)[C@H](CC(C)C)N(C)C(=O)C[C@@H](C)N(C)C(=O)[C@H](C(C)C)N(C)C(=O)C2(CCCCC2)NC(=O)[C@@H]2CCCN2C(=O)[C@H](CCc2ccc(C(F)(F)F)c(Cl)c2)NC(=O)CN(C)C(=O)[C@H](CC2CCCCC2)N(C)C(=O)CN(C)C(=O)CN(C)C1=O [Compound 81] (cyclo([Ac6c][NMeV][NMedβ3hAla][NMeL]I[Sar][Sar][NMeCha][Sar][hPhe(3-Cl-4-CF3)]P))	7.85	6.30 to 7.00
CC[C@H](C)[C@@H]1NC(=O)[C@H](CC(C)C)N(C)C(=O)C[C@@H](C(=O)N2CCCCC2)N(C)C(=O)[C@H](C(C)C)N(C)C(=O)C2(CCCC2)NC(=O)[C@@H]2CCCN2C(=O)[C@H](CCc2ccc(C(F)(F)F)c(Cl)c2)NC(=O)CN(C)C(=O)[C@H](CC2CCCCC2)N(C)C(=O)[C@@H]2CCN2C(=O)[C@H](COCC(C)(C)O)N(C)C1=O [Compound 86] ([NMeL]I[NMeS](CH2CMe2OH)[Aze][NMeCha][Sar][hPhe(3-Cl-4-CF3)]P[Ac5c][NMeV][NMeD]-Piperidide; lactam N-11)	8.05	6.30 to 7.00
CC[C@H](C)[C@@H]1NC(=O)[C@H](C2CCCCC2)N(C)C(=O)C[C@@H](C(=O)N2CCCCC2)N(C)C(=O)[C@H](C(C)C)N(C)C(=O)C2(CCCC2)NC(=O)[C@@H]2CCCN2C(=O)[C@H](CCc2ccc(C(F)(F)F)c(Cl)c2)NC(=O)CN(C)C(=O)[C@H](CC2CCCCC2)N(C)C(=O)CN(C)C(=O)CN(C)C1=O [Compound 106] ([NMeChg]I[Sar][Sar][NMeCha][Sar][hPhe(3-Cl-4-CF3)]P[Ac5c][NMeV][NMeD]-Piperidide; lactam N-11)	8.05	6.30 to 7.00
